According to patent US20190327974A1, “SYNERGISTS FOR IMPROVED PESTICIDES” (priority 2017, published 2019):
Read-outs that look alike come from different tables or passages of the source.

What was measured:
[1] = molecular target: T1, wild-type LcαE7 (αE7 carboxylesterase) (Lucilia cuprina, UniProt Q25252); test: Inhibition of wildtype αE7 (competition assay, hydrolysis of 4-nitrophenol butyrate), dose-response curves of FIG. 7; format: biochemical; conditions: 95% confidence interval in brackets; recombinant His6-tagged enzyme from E. coli, 0.5 nM; 4-nitrophenol butyrate 15 μM (= KM); room temperature, pH 7.5, 405 nm; three technical replicates
T1 sequence (Q25252 1-570): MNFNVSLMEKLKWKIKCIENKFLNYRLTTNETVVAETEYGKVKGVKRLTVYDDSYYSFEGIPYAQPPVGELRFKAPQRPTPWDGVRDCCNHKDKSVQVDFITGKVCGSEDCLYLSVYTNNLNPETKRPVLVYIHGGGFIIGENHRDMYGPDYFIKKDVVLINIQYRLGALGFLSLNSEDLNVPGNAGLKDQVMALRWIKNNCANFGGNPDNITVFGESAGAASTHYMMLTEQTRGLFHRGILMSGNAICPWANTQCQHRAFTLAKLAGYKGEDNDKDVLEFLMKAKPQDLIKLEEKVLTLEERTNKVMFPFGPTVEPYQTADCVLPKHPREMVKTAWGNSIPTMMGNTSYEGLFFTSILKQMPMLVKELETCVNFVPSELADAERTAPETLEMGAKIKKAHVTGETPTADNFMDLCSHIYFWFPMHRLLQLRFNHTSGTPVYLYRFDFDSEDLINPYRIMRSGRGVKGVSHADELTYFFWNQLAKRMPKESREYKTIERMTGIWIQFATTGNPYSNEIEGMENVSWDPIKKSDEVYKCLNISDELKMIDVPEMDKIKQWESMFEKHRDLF
Method: FIG. 7 presents dose-response curves for the inhibition of wildtype αE7. Inhibition of the hydrolysis of […] was determined for phenylboronic acid (PBA) and compounds 1-5 and 3.1-3.12. Three (technical) replicate measurements of enzyme activity were performed for each concentration of boronic acid. The concentration of boronic acid required to inhibit 50% of activity (IC50) was determined by fitting a sigmoidal sigmoidal dose-response curve to plots of percentage inhibition. The curve was constrained to 0 (bottom) and 100% (top) inhibition with a variable Hill slope. […]
Wild-type LcαE7 was heterologously expressed in Escherichia coli and purified using metal ion affinity and size exclusion chromatography. The potency of the boronic acids was determined by enzymatic assays of recombinant LcαE7 with the model carboxylester substrate 4-nitrophenol butyrate.
His6-tagged proteins were expressed in BL21(DE3) E. coli (Invitrogen) at 26° C. for 18 hours. Cells were collected by centrifugation, resuspended in lysis buffer (300 mM NaCl, 10 mM imidazole, 50 mM HEPES pH 7.5) and lysed by sonication. Cell debris was pelleted by centrifugation and the soluble fraction was loaded onto a HisTrap-HP Ni-Sepharose column (GE Healthcare). Bound protein was eluted with lysis buffer supplemented with 300 mM imidazole. Fractions containing the eluted protein were concentrated with a 30 kDa molecular mass cutoff centrifuge concentrator (Amicon) and loaded onto a HiLoad 26/60 Superdex-200 size-exclusion column (GE Healthcare) pre-equilibrated with 150 mM NaCl, 20 mM HEPES pH 7.5. Eluted fractions containing the monomeric protein were pooled for enzyme inhibition assays or crystallization. Protein concentration was determined by measuring the absorbance at 280 nm with an extinction coefficient calculated using the Protparam online server (Gasteiger, E. et al. Protein identification and analysis tools on the ExPASy server. Proteomics Protoc. Handb. 571-607 (2005). doi:10.1385/1-59259-890-0:571).
Inhibition of wild-type αE7 and the Gly137Asp αE7 variant was determined by a competition assay between the native-substrate analogue 4-nitrophenol butyrate (Sigma) and the boronic acid compounds. Initially, the Michalis constant (KM) with 4-nitrophenol butyrate was measured for both enzymes to determine an appropriate concentration of substrate for use in the competition assays. Formation of the 4-nitrophenolate product of hydrolysis was monitored at 405 nm in the presence of enzyme and eight different concentrations of substrate. 4-nitrophenol butyrate was prepared in methanol to 100 mM and serially diluted 1-in-2 to achieve concentrations from 100 mM to 0.8 mM. Enzyme stocks were prepared in 4 mg/ml bovine serum albumin (Sigma) to maintain enzyme stability. Reactions were prepared by pipetting 178 μl assay buffer (100 mM NaCl, 20 mM HEPES pH 7.5) and 2 μl substrate (final concentrations of 1000 to 8 μM) into 300 μl wells of a 96-well plate. The reaction was initiated by the addition of 20 μl enzyme (final concentration 2.5 nM for wildtype αE7 and 4 nM for Gly137Asp αE7). Product formation was monitored for four minutes at room temperature using an Epoch microplate spectrophotometer (BioTek) and the initial rates of ester hydrolysis were determined by linear regression using GraphPad Prism. The Michalis constant was determined by fitting the initial rates to the Michalis-Menton equation (FIG. 10).
Enzyme inhibition with the boronic acid compounds was determined by assaying the initial rate of 4-nitrophenol butyrate hydrolysis in the presence of either neat DMSO or the boronic acid compounds in DMSO. Compounds were prepared by serially diluting 1-in-3 an initial 10 mM stock to achieve concentrations from 10 mM to 2 nM. Reactions were prepared by pipetting 178 μl assay buffer supplemented with substrate to a final concentration equal to the KM of the enzyme (15 μM for wildtype αE7 and 250 μM for Gly137Asp αE7) into wells of a 96-well plate. […]

[2] = test system: Lucilia cuprina larvae, laboratory drug-susceptible strain LS; test: Lucilia cuprina larval bioassay (pupation rate), laboratory strain; format: in vivo; conditions: for synergism with diazinon (in words): susceptible strain
Method: Inhibitor efficacy was determined by treating larvae with diazinon over a range of concentrations, in the presence or absence of the compounds at constant concentrations, and comparing pupation rates.
Two strains of L. cuprina were used: 1) a laboratory reference drug-susceptible strain, LS, derived from collections in the Australian Capital Territory over 40 years ago, with no history of exposure to insecticides; and 2) a field-collected strain, Tara, resistant to diazinon and diflubenzuron (Levot, G. W. & Sales, N. New high level resistance to diflubenzuron detected in the Australian sheep blowfly, Lucilia cuprina (Wiedemann) (Diptera: Calliphoridae). Gen. Appl. Entomol. 31, 43-46 (2002)). The LcαE7 gene was sequenced in each of the strains. Briefly, genomic DNA was prepared from 20 adult female flies from each strain using the DNeasy Blood and Tissue kit (Qiagen). PCR was performed with primers specific to the LcαE7 gene, and the product was cloned into a pGEM-T EASY vector (Promega). Eight clones of the susceptible strain and 10 clones of the resistant strain were sequenced using M13 forward and reverse primers.
Each experiment utilized 50 larvae at each diazinon/malathion concentration. Experiments were replicated three times for diazinon, and twice for malathion. The insecticidal effects were defined by measuring the pupation rate. […] Compounds were also without diazinon or malathion at 1 mg per assay.

PC3 = test: Cell toxicity panel, viability (luminescence); format: cell-based, human; conditions: Readout: Luminescence, read-out: IC50 Viability Cells, Cell line: PC3
Method: (§1) To further establish the safety and cell toxicity of compounds according to this invention, their IC50 in killing a broad panel of human cell lines (including both cancerous and non-cancerous) cell lines was determined, and their cell toxicity was tested.

293T = test: Cell toxicity panel, viability (luminescence); format: cell-based; conditions: Homo sapiens, HEK-293T; Readout: Luminescence; read-out: IC50 Viability Cells, Cell line: 293T
Method: as §1

SMILES | IC50 [1] [nM] | IC50 (293T) [nM] | IC50 (PC3; Homo sapiens, PC-3) [nM] | other results
CC(C)(C)Oc1ccc(B(O)O)cc1Br [Compound 3.12] | 25 |  |  | 
CC(C)Oc1cc(Br)cc(B(O)O)c1 [Compound 3.7, 3-Bromo-5-isopropoxyphenylboronic acid] | 0.62 |  |  | 
OB(O)c1cc(Br)cc(N2CCOCC2)c1 [Compound 3.1] | 1.5 |  |  | reduction of diazinon EC50 compared to a diazinon only control ([2]; susceptible laboratory strain): 5.7 fold; IC50 (PC3): > 99800 nM
OB(O)c1ccc(OCc2ccccc2F)c(Cl)c1 [Compound 5, 3-Chloro-4(2′-fluorobenzyloxy) phenylboronic acid] | 22.4 | 90300 | 83700 | synergism with diazinon (in words) [2]: No synergism was observed
OB(O)c1cc(Br)cc(OCc2ccccc2)c1 [Compound 3.9] | 0.91 | > 99800 | > 99800 | synergism with diazinon (in words) [2]: synergism was observed
OB(O)c1cc(Br)cc(Oc2ccccc2)c1 [Compound 3.10, 3-Bromo-5-phenoxyfenylboronic acid] | 0.91 |  |  | reduction of malathion EC50 compared to a malathion only control ([2]; laboratory strain): 16 fold; synergism with diazinon (in words) [2]: synergism was observed
Cc1ccc(B(O)O)cc1Br [Compound 1] | 25 | > 99800 | > 99800 | 
CN1CCN(c2cc(Br)cc(B(O)O)c2)CC1 [Compound 3.4] | 7.8 |  |  | 
OB(O)c1cc(Br)c2ccccc2c1F [Compound 3.6] | 13 |  |  | 
OB(O)c1cc(Br)cc(N2CCCCC2)c1 [Compound 3.3] | 0.97 |  |  | 
OB(O)c1ccccc1 [PBA, phenylboronic acid, reference compound] | 430 |  |  | 
OB(O)c1cc(Br)cc(N2CCCC2)c1 [Compound 3] | 0.52 | > 99800 | > 99800 | synergism with diazinon (in words) [2]: synergism was observed
OB(O)c1ccc2ccccc2c1 [Compound 4] | 15 | > 99800 | > 99800 | 
Cc1ccc(B(O)O)cc1OCc1ccccc1 [Compound 2] | 6.1 | 42900 | 49100 | synergism with diazinon (in words) [2]: No synergism was observed
OB(O)c1cc(Br)cc(OC(F)(F)F)c1 [Compound 3.8] | 4.2 |  |  | 
OB(O)c1cc(Br)cc2c1OCC2 [Compound 3.5] | 7.2 |  |  | 
O=C(c1cc(Cl)cc(B(O)O)c1)N1CCOCC1 [Compound 3.11] | 12 |  |  | 
